# Experiments:
# C/EBPa = settings: cited from earlier work
# [1] = Images of liver, gallbladder and kidney in palbociclib treated mouse; format: in vivo
# Source text: (§1) FIG. 9A-9D show effects of palbociclib on 5×FAD mice model. FIGS. 9A and 9B is a series of immunofluorescent images showing expression of cell cycle marker (Cyclin D1) (9A) and Pax6 (9B). […] FIG. 9D is an image of an autoradiogram of a Western blot and the associated quantitative bar graph showing the relative expression of E2F-1, CDK6, c-Myb, APP, Iba1 and LC3B in palbociclib treatment group compared to controls. FIG. 9E is a series of images of brain tissue showing the relative Aβ deposits in palbociclib treated mouse brain tissue compared to controls. FIG. 9F is a series of images of liver, gallbladder and kidney in palbociclib treated mouse. FIGS. 9G-9J show the effect of palbociclib treatment on learning and memory ability of 5×FAD female mice in morris water maze. FIG. 9G is a schematic diagram of palbociclib administration with 60 mg/(kg*d); 10-month-old wild-type mice (WT) and 5×FAD mice were administrated with solvent (ctrl) and 60 mg/kg/day palbociclib (palb) for 2 months via oral garage; Morris water maze with n(WT-ctrl)=5, n(5×FAD-ctrl)=5, n(5×FAD-palb)=3 were performed.
# FIGS. 9A-9D show effects of palbociclib on 5×FAD mice model. […] FIG. 9D is an image of an autoradiogram of a Western blot and the associated quantitative bar graph showing the relative expression of E2F-1, CDK6, c-Myb, APP, Iba1 and LC3B in palbociclib treatment group compared to controls. […]
# 5×FAD mice [2] = test: Immunofluorescence, Western blot and Aβ deposits in brain of palbociclib-treated 5×FAD mice; format: in vivo, mouse
# Source text: as §1
# FIGS. 8A-8E show the effects of palbociclib on 5×FAD mice models.
# FIGS. 9A-9D show effects of palbociclib on 5×FAD mice model. FIGS. 9A and 9B is a series of immunofluorescent images showing expression of cell cycle marker (Cyclin D1) (9A) and Pax6 (9B). […] FIG. 9D is an image of an autoradiogram of a Western blot and the associated quantitative bar graph showing the relative expression of E2F-1, CDK6, c-Myb, APP, Iba1 and LC3B in palbociclib treatment group compared to controls. FIG. 9E is a series of images of brain tissue showing the relative […] deposits in palbociclib treated mouse brain tissue compared to controls.
# 293T-Tau cell line = test: Western blot of CDK4 and Cyclin D1 in 293T-Tau cell line; format: cell-based; settings: 10 nM and 50 nM
# Source text: (§2) Experiments were designed to test the effect of palbociclib on Tau in vitro and in vivo.
# 293T-APP cell line = test: Western blot of CDK4 and Cyclin D1 in 293T-APP cell line; format: cell-based; settings: 10 nM and 50 nM
# Source text: as §2
# 5×FAD mice [3] = test: Morris water maze of palbociclib-treated 5×FAD mice; format: in vivo, mouse
# Source text: as §1
# FIGS. 9G-9J show the effect of palbociclib treatment on learning and memory ability of 5×FAD female mice in morris water maze. FIG. 9G is a schematic diagram of palbociclib administration with 60 mg/(kg*d); 10-month-old wild-type mice (WT) and 5×FAD mice were administrated with solvent (ctrl) and 60 mg/kg/day palbociclib (palb) for 2 months via oral garage; Morris water maze with n(WT-ctrl)=5, n(5×FAD-ctrl)=5, n(5×FAD-palb)=3 were performed.
# cortical neurons = test: Neuronal survival assay of amyloid β neurotoxicity; format: cell-based, mouse; settings: co-treatment with amyloid β
# Protocol: The survival assay of amyloid β neurotoxicity was performed as reported previously^33. At various time periods, neurons were lysed in a cell lysis buffer. Under light microscopy, the numbers of intact nuclei indicating living cells was quantified and expressed relative to the number of cells in the control group without amyloid β treatment.
# The brains were dissociated from skulls, meninges removed and cortices isolated. Individual cells were dissociated by incubation with trypsin and DNase (Sigma). Cells were plated on poly-d-lysine (Sigma)-coated 24-well plates at a density of 1.5×10^6 cells/ml in Neurobasal medium (Thermo Fisher Scientific) supplemented with B-27 (Thermo Fisher Scientific), N-2 (Thermo Fisher Scientific), and glutamine (0.5 mM, Thermo Fisher Scientific). Three days after seeding, cultured cells were transfected with siRNAs (60 pmol/24-well) using Lipofactamine 2000 transfection reagent (Thermo Fisher Scientific). Twenty-four hours after transfection, cells were exposed to amyloid β1-42 (5 μM) for the indicated time periods and then processed for subsequent assays. SiRNAs from Santa Cruz are provided as pools consisting of three to five target-specific 19-25 nucleotides siRNAs designed to specifically knockdown the expression of mouse Pax6, c-Myb or E2F1. Silencer Select Pre-designed siRNAs were from Ambion, non-targeting siRNA was used as a negative control. […]
# cdks 1, 2, 4 and 7 = settings: in vitro; cited from earlier work
# Pax6 promoter = Pax6 promoter luciferase reporter assay in amyloid β-treated cortical neurons; format: cell-based, mouse; settings: co-treatment with amyloid β
# Protocol: Cortical neurons were transfected with luciferase reporter constructs three days after plating. After amyloid β treatment, luciferase activity of a target gene was determined using the dual-luciferase reporter assay system (Promega) in a microplate luminometer. Luciferase activity was normalised against Renilla activity for the transfection efficiency using a pRL Renilla luciferase control reporter construct. Next, experiments were designed to investigate whether the upregulation of Pax6 and c-Myb is associated with an increase in transcriptional activation of their targets. Cortical neurons were transfected with a P6CON luciferase reporter construct, which contained three standard Pax6 binding sites^39 to measure Pax6 binding; a luciferase construct containing the Pax6 P1 promoter^40 to measure Pax6 promoter activation; or with a luciferase construct containing c-Myb binding sites to measure c-Myb binding. The same luciferase assays were then performed after amyloid β treatment.
# Pax6 and c-Myb = test: RT-PCR and Western blot of amyloid β-induced Pax6 and c-Myb in cortical neurons; format: cell-based, mouse
# Protocol: Human brain tissues or mouse cortical neurons were dissolved in ice-cold 1×RIPA buffer (Cell Signaling) with proteinase inhibitor cocktail (Sigma). Proteins were separated on NuPAGE Novex 4-12% Bis-Tris gels (Thermo Fisher Scientific) and transferred to nitrocellulose membranes. Membranes were probed with indicated primary antibodies. The blots were analysed and quantified by densitometry using ImageJ software (Version 1.52t, National Institutes of Health).
# Total mRNA was prepared from cell cultures utilizing TRIzol reagent (Thermo Fisher Scientific). Semi-quantitative RT-PCR experiments were performed to examine RNA expression of target genes. Briefly, 2 μg of total RNA was reverse-transcribed using SuperScript First-Strand Synthesis System (Thermo Fisher Scientific). The first-strand cDNA was used as a template. β-actin was used as the normalisation control.
# Primary cortical neurons were derived from embryonic day 14.5 (E14.5) C57BL/6 mice^31. The brains were dissociated from skulls, meninges removed and cortices isolated. Individual cells were dissociated by incubation with trypsin and DNase (Sigma). Cells were plated on poly-d-lysine (Sigma)-coated 24-well plates at a density of 1.5×10^6 cells/ml in Neurobasal medium (Thermo Fisher Scientific) supplemented with B-27 (Thermo Fisher Scientific), N-2 (Thermo Fisher Scientific), and glutamine (0.5 mM, Thermo Fisher Scientific). […]
# [4] = 5×FAD female mice, 60 mg/kg/day oral 2 months
structure (smiles),measurement,setting,value
COc1ccccc1-n1c(/C=C/c2ccc(O)c(O)c2)nc2ccccc2c1=O [ICCB280],induction of C/EBPa,C/EBPa,potent inducer
CC(=O)c1c(C)c2cnc(Nc3ccc(N4CCNCC4)cn3)nc2n(C2CCCC2)c1=O [palbociclib],"side effect (liver, gallbladder and kidney images)",[1],no side effect
same,Aβ deposit in brain tissue,5×FAD mice [2],relative fewer
same,expression of Pax6,5×FAD mice [2],decreased expression
same,expression of cell cycle marker (Cyclin D1),5×FAD mice [2],increased expression
same,expression of E2F-1,5×FAD mice [2]; treatment group compared to controls,relative decreased expression
same,expression levels of CDK4 and Cyclin D1,293T-Tau cell line,decreased
same,expression levels of CDK4 and Cyclin D1,293T-APP cell line,Decreased
same,frequency of crossing platform in probe trial,5×FAD mice [3]; [4],significantly increased
same,latency to platform in probe trial,5×FAD mice [3]; [4],significantly improved to the level of the wild type control
same,memory and learning of 5×FAD mice,"5×FAD mice [3]; mouse, in vivo",able to improve memory and learning
CN1CC[C@H](c2c(O)cc(O)c3c(=O)cc(-c4ccccc4Cl)oc23)[C@H](O)C1 [flavopiridol],amyloid β-induced death of cortical neurons,cortical neurons,protected cortical neurons against amyloid β-induced death
same,"inhibition of all cdks tested (cdks 1, 2, 4 and 7)","cdks 1, 2, 4 and 7",potent and specific in vitro inhibition
same,amyloid β-induced activation of the Pax6 promoter,Pax6 promoter,blocked
same,amyloid β-induced upregulation of Pax6 and c-Myb mRNA and protein,Pax6 and c-Myb,significantly blocked

# Reference: US20240254489A1, “COMPOSITIONS AND METHODS OF TARGETING THE PAX6 SIGNALING PATHWAY TO REDUCE FORMATION OF AMYLOID BETA PLAQUES AND NEUROFIBRILLARY TANGLES” (The University of Hong Kong, priority 2021, published 2024)
